Where a name gives a salt, the structure may show the parent alone. Read-outs that look alike come from different tables or passages of the source.
Assays:
[1] = biological target: T1, urotensin II receptor (hUT) (Homo sapiens, UniProt Q9UKP6); experiment: radioligand binding assay
T1 sequence (Q9UKP6 1-389): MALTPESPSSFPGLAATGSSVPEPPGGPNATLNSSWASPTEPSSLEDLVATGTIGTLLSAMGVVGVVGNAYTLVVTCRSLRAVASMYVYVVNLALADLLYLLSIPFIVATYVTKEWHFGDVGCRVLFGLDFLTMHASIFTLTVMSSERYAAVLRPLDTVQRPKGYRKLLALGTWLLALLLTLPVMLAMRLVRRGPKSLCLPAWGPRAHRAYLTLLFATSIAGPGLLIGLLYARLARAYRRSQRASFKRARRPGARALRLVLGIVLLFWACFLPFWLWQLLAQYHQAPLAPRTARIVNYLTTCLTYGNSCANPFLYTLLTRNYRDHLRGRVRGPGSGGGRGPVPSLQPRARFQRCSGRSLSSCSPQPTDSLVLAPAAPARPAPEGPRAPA

[2] = biological target: T1, urotensin II receptor (hUT); experiment: radioligand binding assay; remark: listed apart in the source

Row | Structure (SMILES) | Ki [1] | Ki [2]
1 | CN(C(=O)CN1C(=O)COc2cc(Cl)c(Cl)cc21)[C@@H](CN1CCOCC1)c1ccc(-c2ccc(C(=O)O)cc2)cc1 [GSK-1440115, 4′-[(1R)-1-[[(6,7-dichloro-3-oxo-2,3-dihydro-4H-1,4-benzoxazin-4-yl)acetyl](methyl)amino]-2-(4-morpholinyl)ethyl]-4-biphenylcarboxylic acid trifluoroacetate] | 31 nM | –
2 | O=C(NC1CCN(Cc2ccc(OC3CCNCC3)c(Br)c2)CC1)c1csc2ccccc12 [KR-36996, N-(1-(3-bromo-4-(piperidin-4-yloxy)benzyl)piperidin-4-yl)benzo[b]thiophene-3-carboxamide] | – | 4 nM
